In patent US20130302909A1, “ASSESSMENT OF IGF-1 LEVELS IN HIV-INFECTED SUBJECTS AND USES THEREOF” (THERATECHNOLOGIES INC., priority 2011, published 2013):
*: point of attachment. Hexenoyl(3E) = CC/C=C/CC(=O)*

Legend:
[1] = system: serum IGF-1; assay: Serum IGF-1 SDS in HIV patients treated with ThGRF, combined phase 3 studies, extension phase (LIPO-010 Extension/CTR-1012); type: in vivo, human; details: for SDS >2 (%) / SDS >3 (%): HIV+ male normative ranges, percent of patients
Excerpt: (§1) The IGF-1 normative ranges were derived from two phase 3 clinical studies of treatment with the GRF analog (hexenoyl trans-3)hGRF(1-44)NH2 (also referred to herein as “ThGRF” or “TH9507”). One phase 3 clinical study includes a main phase (6 months) and an extension phase (6 months) in one study (Lipo-010) and the second phase 3 clinical study includes two studies. CTR-1011 was the main phase (first 6 months) and CTR-1012 was the extension phase (last 6 months).
(§2) The IGF-1 data at baseline of all male patients from studies Lipo-010 and CTR-1011 were combined. Loge transformation was applied. […] The level of IGF-1 in the serum samples was determined using a blocking RIA assay. The IGF-1 blocking RIA assay is a competitive binding radioimmunoassay. It utilizes rabbit polyclonal antisera specific for IGF-1 as the primary antibody and radioiodinated recombinant human IGF-1 as tracer. Serum IGF-1 is first separated from binding proteins by acid ethanol extraction. The extracts (controls and unknown/test samples) and standard are incubated with primary antibody and tracer. Free IGF-1 present in the extracts competes with and displaces the tracer from primary antibody. A second antibody specific for rabbit immunoglobulin is added to precipitate the immunocomplexes, which are then separated from free reactants by centrifugation. The amount of radioactivity present in the precipitated immunocomplex is measured with a gamma counter and is inversely related to the concentration of IGF-1 present in the sample. The amount of tracer bound to the immunocomplexes formed in the calibrator samples (purified recombinant human IGF-1) is used to establish a dose response standard curve from which the IGF-1 concentration of controls and unknown samples are back calculated.
(§3) During clinical studies of the treatment of HIV subjects with ThGRF, initial analyses of IGF-I values of the HIV subjects was performed using a typical IGF-I determination, in which age- and gender-specific means and SD values were utilized for the calculation of the standard deviation scores (SDS). These values were derived from a relatively small cohort of healthy adults and were established assuming a Normal distribution (without any transformation of the measured IGF-1 values). As such, determination of the normative IGF-1 range was initially performed based on age- and gender-matched healthy (i.e., non-HIV) subjects, without any transformation of the measured raw IGF-1 values, referred to herein below as the “typical method” or “typical approach”.
(§4) The IGF-1 SDS were recalculated based on the means and standard deviations calculated from HIV patients (from all male patients in the above-noted clinical studies at baseline per age group as presented in Table III above, assuming a Normal distribution). The results are presented in Table IV for the main phase and the extension phase.
(§5) The calculations above (based on “healthy”, typical normative ranges or using normative ranges based on IGF-1 levels in HIV subjects) were all done assuming a Normal distribution of the IGF-1 levels. However, it was noted that the distribution of the IGF-1 levels at baseline for the patients in the phase 3 clinical studies is “Lognormal” rather than “Normal”. Thus, the means and standard deviations were recalculated using the natural log(loge or In) of IGF-1 and then calculated IGF-1 SDS using the lognormal scale, i.e. [(natural log IGF-1) minus (mean) divided by (standard deviation)]. The results using lognormal distributions are presented in Table V for the main phase and the extension phase. Importantly, the percent of patients at baseline and those treated with placebo is now much closer to expected and in addition, the % of ThGRF-treated patients being larger than +2 and +3 SDS using the lognormal distribution and the HIV population normative ranges are substantially lower than that seen using the uncorrected SDS calculators.

[2] = system: serum IGF-1; assay: Serum IGF-1 level and IGF-1 SDS in HIV patients treated with ThGRF, combined phase 3 studies, main phase (LIPO-010 Main/CTR-1011); type: in vivo, human; details: Week 26; for SDS >2 (%) / SDS >3 (%): HIV+ male normative ranges
Excerpt: as §1, §2, §3, §4, §5

[3] = Week 27, T-P group, Log-Normal distribution
[4] = Week 27, T-P group, Normal distribution
[5] = Week 27, T-T group, Log-Normal distribution
[6] = Week 27, T-T group, Normal distribution
[7] = Week 52, T-P group, Log-Normal distribution
[8] = Week 52, T-P group, Normal distribution
[9] = Week 52, T-T group, Log-Normal distribution
[10] = Week 52, T-T group, Normal distribution
[11] = Week 52, typical approach and healthy normative ranges
[12] = 2 mg/day, Log-Normal distribution, percent of patients
[13] = 2 mg/day, Normal distribution, percent of patients
[14] = 2 mg/day, typical approach, percent of patients

(hexenoyl trans-3)hGRF(1-44)NH2 ({Hexenoyl(3E)}-YADAIFTNSYRKVLGQLSARKLLQDIMSRQQGESNQERGARARL-NH2) [ThGRF]
SDS >2 (%) [1, 3]: 28.8%
SDS >3 (%) [1, 3]: 5.3%
SDS >2 (%) [1, 4]: 40.2%
SDS >3 (%) [1, 4]: 21.2%
SDS >2 (%) [1, 5]: 32.6%
SDS >3 (%) [1, 5]: 7.6%
SDS >2 (%) [1, 6]: 44.5%
SDS >3 (%) [1, 6]: 29.2%
SDS >2 (%) [1, 7]: 0.0%
SDS >3 (%) [1, 7]: 0.0%
SDS >2 (%) [1, 8]: 1.1%
SDS >3 (%) [1, 8]: 0.0%
SDS >2 (%) [1, 9]: 19.5%
SDS >3 (%) [1, 9]: 5.8%
SDS >2 (%) [1, 10]: 27.9%
SDS >3 (%) [1, 10]: 16.3%
ThGRF-treated patients larger than +2 SDS [1, 11]: 33.7%
ThGRF-treated patients larger than +3 SDS [1, 11]: 22.6%
SDS >2 (%) [2, 12]: 30.1%
SDS >3 (%) [2, 12]: 7.4%
SDS >2 (%) [2, 13]: 41.2%
SDS >3 (%) [2, 13]: 25.4%
IGF-1 SDS Mean (SD) ([2]; 2 mg/day, typical approach (healthy normative ranges, Normal distribution)): 2.4 (2.85)
SDS >+2 (%) [2, 14]: 47.4%
SDS >+3 (%) [2, 14]: 35.6%
IGF-1 level Mean (SD) ([2]; ThGRF 2 mg/day): 262 (123.6) ng/ml
